Data reported in patent US9422557B2, “Methods and compositions for weed control” (Monsanto Technology LLC, priority 2011, dated 2016).

Legend:
[1] = test system: Glyphosate-sensitive Palmer amaranth (A. palmeri R-22) plants; assay: Topical treatment of Palmer amaranth with pooled ssDNA ACCase oligonucleotides followed by clethodim; plant height; type: in vivo, Amaranthus palmeri; settings: clethodim (SelectMax) 272 g ai/ha with 1% COC; ssDNA pool at 16 nmol applied 24 and 48 hours before herbicide where used; height followed up to twelve days after herbicide; four replications; FIG. 1
Description: (§1) Glyphosate-sensitive Palmer amaranth (A. palmeri R-22) plants where grown in the greenhouse (30/20 C day/night T; 14 hour photoperiod) in 4 inch square pots containing Sun Gro® Redi-Earth and 3.5 kg/cubic meter Osmocote® 14-14-14 fertilizer. Palmer amaranth plants at 5 to 10 cm in height were treated with a pool of eight 8 short (21-22mer) single-strand antisense oligo DNA polynucleotides (ssDNA) targeting ACCase shown in Table 2 at 16 nmol, formulated in 10 millimolar sodium phosphate buffer (pH 6.8) containing 2% ammonium sulfate and 0.5% Silwet L-77. Plants were treated manually by pipetting 10 μL of polynucleotide solution on four fully expanded mature leaves, for a total of 40 microliters of solution per plant. Twenty-four and forty-eight hours later, the plants were treated with clethodim (SelectMax®, 0.97 lb ai per gallon; ACCase inhibitor) at 272 g ai/ha, crop oil concentrate (COC) at 1% was added to the herbicide treatments. Four replications of each treatment were conducted. Plant height was determined just before ssDNA treatment and at intervals upto twelve days after herbicide treatments to determine effect of the oligonucleotide and herbicide treatments.

[2] = test system: Glyphosate-sensitive Palmer amaranth (A. palmeri R-22) plants; assay: Follow-up test of individual ACCase oligonucleotides with herbicide 24 hours later; growth effects; type: in vivo, Amaranthus palmeri; settings: 4 nmol oligonucleotide per plant, four plants; herbicide applied 24 hours after the oligonucleotide treatment
Description: as §1
An additional test was conducted to determine which of the ACCase oligonucleotides was responsible for the result. […]

Row | Molecule | reduction in plant height relative to the untreated control [1] [%] | reduction of plant growth relative to untreated plants (average) [2] [%]
1 | CCSC(C)CC1CC(=O)C(C(CC)=NOC/C=C/Cl)=C(O)C1 (centres unmarked) [clethodim, 2-[1-[[[(2E)-3-chloro-2-propen-1-yl]oxy]imino]propyl]-5-[2-(ethylthio)propyl]-3-hydroxy-2-cyclohexen-1-one] | 0 | –
2 | oligo6: single-strand antisense DNA oligo targeting ACCase, GCACCACGAGGATCACAAGAA (DNA, backbone and methylation of C not given here; listed as Amaranthus palmeri) | – | 40
